Results taken from ChEMBL document CHEMBL4665649, “Resistance mechanisms and cross-resistance for a pyridine-pyrimidine amide inhibitor of microtubule polymerization” (Bioorg Med Chem Lett, 2019).
Active and inactive are the calls of the source. The rule behind the calls is not given here.

Tests used:
[1] = system: A2780; test: Antiproliferative activity against D4-9-31 resistance human A2780 cells assessed as reduction in mitochondrial respiration; type: functional, cell-based
[2] = system: A2780; test: Antiproliferative activity against human A2780 cells assessed as reduction in mitochondrial respiration; type: functional, cell-based
[3] = system: A2780; test: Antiproliferative activity against human A2780 cells incubated for 72 hrs by live-cell imaging based assay; type: functional; conditions: A2780, 72 h
[4] = system: A2780; test: Antiproliferative activity against D4-9-31 resistance human A2780 cells incubated for 72 hrs by ATPlite reagent based assay; type: functional, cell-based; conditions: A2780, 72 h
[5] = system: A2780; test: Antiproliferative activity against human A2780 cells incubated for 72 hrs by ATPlite reagent based assay; type: functional, cell-based; conditions: A2780, 72 h

EC50 [3] [nM]	SMILES	Activity [1]	Activity [2]	EC50 [4] [nM]	EC50 [5] [nM]
12	Cc1ncc(C(=O)Nc2ccc(-c3cccc(S(=O)(=O)C4CC4)c3)cn2)cn1	Active	Active	23	9.9
	COc1cc2c(c(OC)c1OC)-c1ccc(OC)c(=O)cc1[C@@H](NC(C)=O)CC2 [COLCHICINE]			8.7	9.2
	O=C(Nc1ccncc1)C(=O)c1cn(Cc2ccc(Cl)cc2)c2ccccc12 [INDIBULIN]			20	19
	CC(=O)O[C@H]1C(=O)[C@@]2(C)[C@H]([C@H](OC(=O)c3ccccc3)[C@]3(O)C[C@H](OC(=O)[C@H](O)[C@@H](NC(=O)c4ccccc4)c4ccccc4)C(C)=C1C3(C)C)[C@]1(OC(C)=O)CO[C@@H]1C[C@@H]2O [PACLITAXEL]			2.4	2.5
	C/C(=C\c1csc(C)n1)[C@@H]1C[C@@H]2O[C@]2(C)CCC[C@H](C)[C@H](O)[C@@H](C)C(=O)C(C)(C)[C@@H](O)CC(=O)O1 [PATUPILONE]			4	5.2
	CC[C@]1(O)C[C@H]2CN(CCc3c([nH]c4ccccc34)[C@@](C(=O)OC)(c3cc4c(cc3OC)N(C=O)[C@H]3[C@@](O)(C(=O)OC)[C@H](OC(C)=O)[C@]5(CC)C=CCN6CC[C@]43[C@@H]65)C2)C1 [VINCRISTINE]			3.9	3.4
